# Assay results reported in patent US12655116B2, “Substituted isophthalic acid diamides” (Bayer Aktiengesellschaft, priority 2020, dated 2026).
# What was measured:
# ECHCG [1] = assay: Post-emergence herbicidal action against ECHCG; assay type: in vivo, Echinochloa crus-galli; conditions: dosage 20 g/ha
# In short: (§1)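 Greenhouse pot plants in sandy loam were sprayed at the one-leaf stage, 2 to 3 weeks after sowing, with WP or EC formulations as aqueous suspension or emulsion (600 to 800 l/ha water, 0.2% wetting agent). About 3 weeks later, damage was scored visually against untreated controls as % action (100% = dead, 0% = like control).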
# AVEFA [2] = assay: Pre-emergence herbicidal action against AVEFA; assay type: in vivo, Avena fatua; conditions: pre-emergence
# In short: (§2)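 Visual rating at 3 weeks vs untreated pots; 0–100% scale, 100% = plants died. Treatment: aqueous WP/EC spray onto covering soil, 600–800 l/ha, 0.2% wetter, seeds in sandy loam.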
# PHBPU [3] = assay: Post-emergence herbicidal action against PHBPU; assay type: in vivo, Pharbitis purpurea; conditions: dosage 20 g/ha
# In short: as §1
# VIOTR [4] = assay: Pre-emergence herbicidal action against VIOTR; assay type: in vivo, Viola tricolor
# In short: as §2
# LOLRI = assay: Pre-emergence herbicidal action against LOLRI; assay type: in vivo, Lolium rigidum; conditions: 80 g/ha
# In short: as §2
# ECHCG [5] = assay: Pre-emergence herbicidal action against ECHCG; assay type: in vivo, Echinochloa crus-galli; conditions: 80 g/ha
# In short: as §2
# DIGSA [6] = assay: Pre-emergence herbicidal action against DIGSA; assay type: in vivo, Digitaria sanguinalis
# In short: as §2
# PHBPU [7] = assay: Pre-emergence herbicidal action against PHBPU; assay type: in vivo, Pharbitis purpurea; conditions: dosage 80 g/ha
# In short: as §2
# VIOTR [8] = assay: Post-emergence herbicidal action against VIOTR; assay type: in vivo, Viola tricolor
# In short: as §1
# STEME = assay: Pre-emergence herbicidal action against STEME; assay type: in vivo, Stellaria media
# In short: as §2
# POLCO = assay: Pre-emergence herbicidal action against POLCO; assay type: in vivo, Polygonum convolvulus; conditions: dosage 80 g/ha
# In short: as §2
# AMARE [9] = assay: Pre-emergence herbicidal action against AMARE; assay type: in vivo, Amaranthus retroflexus
# In short: as §2
# DIGSA [10] = assay: Post-emergence herbicidal action against DIGSA; assay type: in vivo, Digitaria sanguinalis; conditions: 20 g/ha
# In short: as §1
# VERPE = assay: Pre-emergence herbicidal action against VERPE; assay type: in vivo, Veronica persica; conditions: dosage 80 g/ha
# In short: as §2
# AMARE [11] = assay: Post-emergence herbicidal action against AMARE; assay type: in vivo, Amaranthus retroflexus; conditions: 20 g/ha, visual assessment about 3 weeks after treatment, 100% = plants have died, 0% = like control plants
# In short: as §1
# ABUTH [12] = assay: Post-emergence herbicidal action against ABUTH; assay type: in vivo, Abutilon theophrasti; conditions: visual assessment about 3 weeks after treatment vs untreated controls
# In short: as §1
# SETVI [13] = assay: Pre-emergence herbicidal action against SETVI; assay type: in vivo, Setaria viridis; conditions: dosage 80 g/ha
# In short: as §2
# MATIN [14] = assay: Post-emergence herbicidal action against MATIN; assay type: in vivo, Matricaria inodora
# In short: as §1
# ABUTH [15] = assay: Pre-emergence herbicidal action against ABUTH; assay type: in vivo, Abutilon theophrasti
# In short: as §2
# MATIN [16] = assay: Pre-emergence herbicidal action against MATIN; assay type: in vivo, Matricaria inodora
# In short: as §2
# ALOMY [17] = assay: Pre-emergence herbicidal action against ALOMY; assay type: in vivo, Alopecurus myosuroides; conditions: pre-emergence
# In short: as §2
# SETVI [18] = assay: Post-emergence herbicidal action against SETVI; assay type: in vivo, Setaria viridis; conditions: dosage 20 g/ha
# In short: as §1
# AVEFA [19] = assay: Post-emergence herbicidal action against AVEFA; assay type: in vivo, Avena fatua; conditions: Avena fatua, 504 h, 20 g/ha, visual assessment about 3 weeks after treatment, 100% = plants have died, 0% = like control plants
# In short: as §1
# ALOMY [20] = assay: Post-emergence herbicidal action against ALOMY; assay type: in vivo, Alopecurus myosuroides; conditions: Alopecurus myosuroides, 504 h, visual assessment about 3 weeks after treatment vs untreated controls
# In short: as §1
# [21] = 80 g/ha, scored visually after 3 weeks vs untreated controls (100% = plants have died, 0% = like control plants)
# [22] = Tripleurospermum inodorum, 504 h, dosage 20 g/ha
structure (smiles),measurement,setting,value
CCNC(=O)c1c(C(F)F)ccc(C(=O)Nc2nnnn2CC)c1C [Example 2-45],Post-emergence action against ECHCG in %,ECHCG [1],80%
same,Pre-emergence action against AVEFA in %,AVEFA [2]; 80 g/ha,100%
same,Post-emergence action against PHBPU in %,PHBPU [3],80%
same,Pre-emergence action against VIOTR in %,VIOTR [4]; dosage 20 g/ha,90%
same,Pre-emergence action against VIOTR in %,VIOTR [4]; dosage 80 g/ha,100%
same,Pre-emergence action against LOLRI in %,LOLRI,80%
same,Pre-emergence action against ECHCG in %,ECHCG [5],100%
same,Pre-emergence action against DIGSA in %,DIGSA [6]; dosage 20 g/ha,90%
same,Pre-emergence action against DIGSA in %,DIGSA [6]; dosage 80 g/ha,100%
same,Pre-emergence action against PHBPU in %,PHBPU [7],80%
same,Post-emergence action against VIOTR in %,VIOTR [8]; 5 g/ha,80%
same,Post-emergence action against VIOTR in %,VIOTR [8]; 20 g/ha,100%
same,Pre-emergence action against STEME in %,STEME; dosage 20 g/ha,90%
same,Pre-emergence action against STEME in %,STEME; dosage 80 g/ha,100%
same,Pre-emergence action against POLCO in %,POLCO,90%
same,Pre-emergence action against AMARE in %,"AMARE [9]; 20 g/ha, scored visually after 3 weeks vs untreated controls, 100% = plants have died, 0% = like control plants",100%
same,Pre-emergence action against AMARE in %,AMARE [9]; [21],100%
same,Post-emergence action against DIGSA,DIGSA [10],80%
same,Pre-emergence action against VERPE in %,VERPE,90%
same,Post-emergence action at 20 g/ha against AMARE in %,AMARE [11],100%
same,Post-emergence action against ABUTH in %,ABUTH [12]; dosage 5 g/ha,80%
same,Post-emergence action against ABUTH in %,ABUTH [12]; dosage 20 g/ha,80%
same,Pre-emergence action against SETVI in %,SETVI [13],100%
same,Post-emergence action against MATIN in %,MATIN [14]; dosage 20 g/ha,80%
same,Pre-emergence action against ABUTH (herbicidal activity),ABUTH [15]; [21],100%
same,Pre-emergence action against ABUTH (herbicidal activity in percent),"ABUTH [15]; dosage 20 g/ha, scored visually after 3 weeks vs untreated controls, 100% = plants have died, 0% = like control plants",80%
same,Pre-emergence action against MATIN in %,MATIN [16]; dosage 20 g/ha,90%
same,Pre-emergence action against MATIN in %,MATIN [16]; dosage 80 g/ha,100%
same,Pre-emergence action against ALOMY (herbicidal activity),ALOMY [17]; [21],90%
same,Post-emergence action against SETVI in %,SETVI [18],80%
CCNC(=O)c1c(Br)ccc(C(=O)Nc2nnnn2CC)c1Cl [Example 2-178],pest or weed control at 20 g/ha,"ECHCG [1]; Echinochloa crus-galli, 504 h",90%
same,pest or weed control at 80 g/ha,"AVEFA [2]; Avena fatua, 504 h, 80 g/ha",100%
same,pest or weed control at 20 g/ha,"AVEFA [2]; Avena fatua, 504 h, 20 g/ha, scored visually after 3 weeks, 100% = plants have died, 0% = like control plants",90%
same,pest or weed control at 20 g/ha,"PHBPU [3]; Ipomoea purpurea, 504 h",90%
same,pest or weed control at 20 g/ha,"VIOTR [4]; Viola tricolor, 504 h, dosage 20 g/ha",100%
same,pest or weed control at 80 g/ha,"VIOTR [4]; Viola tricolor, 504 h, dosage 80 g/ha",100%
same,pest or weed control at 80 g/ha,"LOLRI; Lolium rigidum, 504 h",80%
same,pest or weed control at 80 g/ha,"ECHCG [5]; Echinochloa crus-galli, 504 h",100%
same,pest or weed control at 20 g/ha,"DIGSA [6]; Digitaria sanguinalis, 504 h, dosage 20 g/ha",100%
same,pest or weed control at 80 g/ha,"DIGSA [6]; Digitaria sanguinalis, 504 h, dosage 80 g/ha",100%
same,pest or weed control at 20 g/ha,"VIOTR [8]; Viola tricolor, 504 h, 20 g/ha",90%
same,pest or weed control at 20 g/ha,AVEFA [19],80%
same,pest or weed control at 20 g/ha,"AMARE [9]; Amaranthus retroflexus, 504 h, 20 g/ha, scored visually after 3 weeks vs untreated controls, 100% = plants have died, 0% = like control plants",100%
same,pest or weed control at 80 g/ha,"AMARE [9]; Amaranthus retroflexus, 504 h, 80 g/ha, scored visually after 3 weeks vs untreated controls, 100% = plants have died, 0% = like control plants",100%
same,pest or weed control at 80 g/ha,"VERPE; Veronica persica, 504 h",90%
same,pest or weed control at 20 g/ha,"AMARE [11]; Amaranthus retroflexus, 504 h",100%
same,pest or weed control at 5 g/ha,"ABUTH [12]; Abutilon theophrasti, 504 h, dosage 5 g/ha",90%
same,pest or weed control at 20 g/ha,"ABUTH [12]; Abutilon theophrasti, 504 h, dosage 20 g/ha",90%
same,pest or weed control at 80 g/ha,"SETVI [13]; Setaria viridis, 504 h",100%
same,pest or weed control at 5 g/ha,"MATIN [14]; Tripleurospermum inodorum, 504 h, dosage 5 g/ha",90%
same,pest or weed control at 20 g/ha,MATIN [14]; [22],90%
same,pest or weed control at 80 g/ha,"ABUTH [15]; Abutilon theophrasti, 504 h, 80 g/ha, scored visually after 3 weeks vs untreated controls (100% = plants have died, 0% = like control plants)",100%
same,pest or weed control at 20 g/ha,MATIN [16]; [22],90%
same,pest or weed control at 80 g/ha,"MATIN [16]; Tripleurospermum inodorum, 504 h, dosage 80 g/ha",100%
same,pest or weed control at 80 g/ha,"ALOMY [17]; Alopecurus myosuroides, 504 h, 80 g/ha, scored visually after 3 weeks vs untreated controls (100% = plants have died, 0% = like control plants)",100%
same,pest or weed control at 20 g/ha,"ALOMY [17]; Alopecurus myosuroides, 504 h, 20 g/ha, scored visually after 3 weeks, 100% = plants have died, 0% = like control plants",80%
same,pest or weed control at 5 g/ha,ALOMY [20]; dosage 5 g/ha,80%
same,pest or weed control at 20 g/ha,ALOMY [20]; dosage 20 g/ha,90%
same,pest or weed control at 20 g/ha,"SETVI [18]; Setaria viridis, 504 h",90%
